Measured values: article PMC7561186, “Rational design of balanced dual-targeting antibiotics with limited resistance” (PLoS Biology, 2020)
≈ marks a conversion by molar mass, not a printed value. Read-outs that look alike come from different tables or passages of the source.

How the values were obtained:
Format in all cases: cell-based
[1] = tested on: S. aureus VISA ATCC 700699 GyrB / ParE mutants; assay: MIC of spontaneous resistant mutants (single-step and second-step); conditions: Staphylococcus aureus
Protocol: MICs were determined using a standard serial broth microdilution technique according to the CLSI guidelines. Briefly, bacterial strains were inoculated onto MHBII agar plates and were grown overnight at 37 °C. Next, 3 individual colonies from each strain were inoculated into 1 mL MHBII medium and propagated at 37 °C, 250 rpm overnight. In the cases of Enterococcus and Streptococcus sp., cells were plated to BHI agar plates, and BHI broth was used to determine MICs. […] Following dilutions, each well was seeded with 5×10^4 bacterial cells. All measurements were performed in 3 parallel replicates and to avoid possible edge effects in microwell plates, side rows (A and H) were filled with sterile medium. Following inoculations, plates were covered with lids and wrapped in polyethylene plastic bags to minimize evaporation but allow for O2 transfer. Plates were incubated at 37 °C under continuous shaking at 150 rpm for 18 hours. After incubation, OD600 of each well was measured using a BioTek Synergy 2 microplate reader.

[2] = tested on: S. aureus ATCC 700699 (VISA); assay: microbe, parasite or virus in culture
Protocol: Adaptive laboratory evolution experiments followed an established protocol for automated laboratory evolution and aimed to maximize the drug-resistance increment during a fixed time period. […] Experiments were conducted in 96-well plates, in MHBII medium, by utilizing a checkerboard layout to minimize and monitor cross-contamination. These 96-well deep-well plates (0.5 mL, polypropylene, V-bottom) were covered with sandwich covers (Enzyscreen BV) to ensure an optimal oxygen exchange rate and limit evaporation and were shaken at 150 rpm, 37 °C. […] Following cell transfer, each culture was allowed to grow for 48 hours. At each transfer, cell growth was monitored by measuring the OD600 in a BioTek Synergy 2 plate reader. […] Accordingly, only 1 of the 4 populations was retained for each independently evolving strain. This protocol was designed to avoid population extinction and to ensure that populations with the highest level of resistance are propagated further during adaptive evolution. […] Adaptation of populations was terminated after 20 transfers, i.e., 40 days. Following adaptation, cells from each final population were spread onto MHBII agar plates, and individual colonies were isolated. Next, one colony from each adapted line were subjected to capillary sequencing of gyrB and parE to assess their genotype.

[3] = tested on: S. aureus clinical isolates; assay: microbe, parasite or virus in culture

Cc1[nH]c(C(=O)Nc2nc3ccc(C(=O)O)cc3s2)c(Cl)c1Cl [ULD1]
MIC ([1]; VISA GyrB I175T): 0.198 µg/mL
MIC ([1]; VISA GyrB R144G): 0.132 µg/mL
MIC ([1]; VISA GyrB R144I): 0.198 µg/mL
MIC ([1]; VISA wt, read-out: MIC): 0.04 µg/mL
MIC ([1]; second-step mutant, selection ULD1 at 16× MIC, GyrB I175T, ParE A120D): 4 µg/mL
MIC ([1]; second-step mutant, selection ULD1 at 16× MIC, GyrB I175T, ParE F95Y): 4 µg/mL
MIC ([1]; second-step mutant, selection ULD1 at 16× MIC, GyrB I175T, ParE R136G): 4 µg/mL
MIC ([1]; second-step mutant, selection ULD1 at 16× MIC, GyrB I175T, ParE T166A): 2 µg/mL
MIC ([1]; second-step mutant, selection ULD1 at 16× MIC, GyrB I175T, ParE T166I): 2 µg/mL
MIC ([1]; second-step mutant, selection ULD1 at 16× MIC, GyrB R144I, ParE A120D): 2 µg/mL
MIC ([1]; second-step mutant, selection ULD1 at 16× MIC, GyrB R144I, ParE F95Y): 2 µg/mL
MIC ([1]; second-step mutant, selection ULD1 at 16× MIC, GyrB R144I, ParE R136G): 2 µg/mL
MIC ([1]; second-step mutant, selection ULD2 at 8× MIC, GyrB I175T, ParE A120D): 4 µg/mL
MIC ([1]; second-step mutant, selection ULD2 at 12× MIC, GyrB R144I, ParE A120D): 2 µg/mL
MIC ([1]; second-step mutant, selection ULD2 at 12× MIC, GyrB R144I, ParE F95Y): 2 µg/mL
MIC ([1]; second-step mutant, selection ULD2 at 12× MIC, GyrB R144I, ParE R136G): 4 µg/mL
MIC ([2]; Staphylococcus aureus, read-out: MIC in adapted strains): 1 µg/mL
increase in MIC in adapted strains compared with the wild-type strain ([2]; lineages adapted to the same compound, S. aureus VISA): 25 fold
MIC ([3]; S. aureus ATCC 29213, MSSA / VSSA, test date 2018-10-25 (three repeat lines)): 1 µg/mL (≈ 2.7 µM)
MIC ([3]; Staphylococcus aureus, ATCC 29213 / MSSA, S. aureus ATCC 29213, MSSA / VSSA, test date 2018-10-25 (three repeat lines), read-out: MIC): 0.5 µg/mL (≈ 1.35 µM)
MIC ([3]; Staphylococcus aureus, ATCC 29213 / MSSA, S. aureus ATCC 29213, MSSA / VSSA, test date 2018-11-07, read-out: MIC): 0.25 µg/mL (≈ 0.675 µM)
MIC ([3]; Staphylococcus aureus, MRSA / NRS 3 / VISA, S. aureus IHMA 1308243, NRS3, MRSA / VISA, read-out: MIC): 1 µg/mL (≈ 2.7 µM)
MIC ([3]; Staphylococcus aureus, MRSA / NRS 4 / VISA, S. aureus IHMA 649380, NRS4, MRSA / VISA, read-out: MIC): 0.5 µg/mL (≈ 1.35 µM)
MIC ([3]; Staphylococcus aureus, MRSA / NRS 18 / VISA, S. aureus IHMA 649386, NRS18, MRSA / VISA, read-out: MIC): 0.5 µg/mL (≈ 1.35 µM)
MIC ([3]; Staphylococcus aureus, MRSA / NRS 19 / VISA, S. aureus IHMA 649387, NRS19, MRSA / VISA, read-out: MIC): 0.5 µg/mL (≈ 1.35 µM)
MIC ([3]; Staphylococcus aureus, MRSA / NRS 21 / VISA, S. aureus IHMA 649388, NRS21, MRSA / VISA, read-out: MIC): 1 µg/mL (≈ 2.7 µM)
MIC ([3]; Staphylococcus aureus, MRSA / NRS 22 / USA600 / VISA, S. aureus IHMA 649389, NRS22, MRSA / VISA, USA600, read-out: MIC): 0.5 µg/mL (≈ 1.35 µM)
MIC ([3]; Staphylococcus aureus, MRSA / NRS 23 / VISA, S. aureus IHMA 649390, NRS23, MRSA / VISA, read-out: MIC): 0.5 µg/mL (≈ 1.35 µM)
MIC ([3]; Staphylococcus aureus, MRSA / NRS 24 / VISA, S. aureus IHMA 649391, NRS24, MRSA / VISA, read-out: MIC): 0.5 µg/mL (≈ 1.35 µM)
MIC ([3]; Staphylococcus aureus, MRSA / NRS 26, S. aureus IHMA 649392, NRS26, MRSA / VSSA, read-out: MIC): 0.5 µg/mL (≈ 1.35 µM)
MIC ([3]; Staphylococcus aureus, MRSA / NRS 27 / VISA, S. aureus IHMA 1308248, NRS27, MRSA / VISA, read-out: MIC): 1 µg/mL (≈ 2.7 µM)
MIC ([3]; Staphylococcus aureus, MRSA / NRS 29 / VISA, S. aureus IHMA 1308250, NRS29, MRSA / VISA, read-out: MIC): 0.5 µg/mL (≈ 1.35 µM)
MIC ([3]; Staphylococcus aureus, MRSA / NRS 37 / VISA, S. aureus IHMA 1308251, NRS37, MRSA / VISA, read-out: MIC): 0.5 µg/mL (≈ 1.35 µM)
MIC ([3]; Staphylococcus aureus, MRSA / NRS 54, S. aureus IHMA 1308253, NRS54, MRSA / VSSA* (*Expected VAN intermediate, confirmed VAN susceptible twice), test date 2018-11-07, read-out: MIC): 0.25 µg/mL (≈ 0.675 µM)
MIC ([3]; Staphylococcus aureus, MRSA / NRS 56 / VISA, S. aureus IHMA 1308254, NRS56, MRSA / VISA, read-out: MIC): 0.5 µg/mL (≈ 1.35 µM)
MIC ([3]; Staphylococcus aureus, MRSA / USA100 / VRSA, S. aureus IHMA 672230, VRS1, MRSA / VRSA, USA100, read-out: MIC): 0.5 µg/mL (≈ 1.35 µM)
MIC ([3]; Staphylococcus aureus, MRSA / USA100 / VRSA, S. aureus IHMA 672231, VRS2, MRSA / VRSA, USA100, read-out: MIC): 0.5 µg/mL (≈ 1.35 µM)
MIC ([3]; Staphylococcus aureus, MRSA / USA100 / VRSA, S. aureus IHMA 672234, VRS4, MRSA / VRSA, USA100, read-out: MIC): 0.5 µg/mL (≈ 1.35 µM)
MIC ([3]; Staphylococcus aureus, MRSA / USA100 / VRSA, S. aureus IHMA 672235, VRS5, MRSA / VRSA, USA100, read-out: MIC): 1 µg/mL (≈ 2.7 µM)
MIC ([3]; Staphylococcus aureus, MRSA / USA100 / VRSA, S. aureus IHMA 672237, VRS7, MRSA / VRSA, USA100, read-out: MIC): 0.5 µg/mL (≈ 1.35 µM)
MIC ([3]; Staphylococcus aureus, MRSA / USA100 / VRSA, S. aureus IHMA 672238, VRS8, MRSA / VRSA, USA100, read-out: MIC): 0.5 µg/mL (≈ 1.35 µM)
MIC ([3]; Staphylococcus aureus, MRSA / USA100 / VRSA, S. aureus IHMA 672239, VRS9, MRSA / VRSA, USA100, read-out: MIC): 0.5 µg/mL (≈ 1.35 µM)
MIC ([3]; Staphylococcus aureus, MRSA / USA100 / VRSA, S. aureus IHMA 1308256, VRS10, MRSA / VRSA, USA100, read-out: MIC): 1 µg/mL (≈ 2.7 µM)
MIC ([3]; Staphylococcus aureus, MRSA / USA100 / VRSA, S. aureus IHMA 1308258, VRS11b, MRSA / VRSA, USA100, read-out: MIC): 0.5 µg/mL (≈ 1.35 µM)
MIC ([3]; Staphylococcus aureus, MRSA / USA800 / VRSA, S. aureus IHMA 672233, VRS3b, MRSA / VRSA, USA800, read-out: MIC): 0.25 µg/mL (≈ 0.675 µM)
MIC ([3]; Staphylococcus aureus, MRSA / VISA / VRSA, all isolates of the panel (MRSA, VISA, VRSA), read-out: MIC against all tested S. aureus clinical isolates): ≤ 1 µg/mL
MIC ([3]; Staphylococcus aureus, MRSA, S. aureus IHMA 1569509, MRSA / VSSA, read-out: MIC): 0.25 µg/mL (≈ 0.675 µM)
MIC ([3]; Staphylococcus aureus, MRSA, S. aureus IHMA 1575268, MRSA / VSSA, read-out: MIC): 1 µg/mL (≈ 2.7 µM)
MIC ([3]; Staphylococcus aureus, MRSA, S. aureus IHMA 1575629, MRSA / VSSA, read-out: MIC): 0.5 µg/mL (≈ 1.35 µM)
MIC ([3]; Staphylococcus aureus, MRSA, S. aureus IHMA 1577820, MRSA / VSSA, read-out: MIC): 1 µg/mL (≈ 2.7 µM)
MIC ([3]; Staphylococcus aureus, MRSA, S. aureus IHMA 1580300, MRSA / VSSA, read-out: MIC): 0.5 µg/mL (≈ 1.35 µM)
MIC ([3]; Staphylococcus aureus, MRSA, S. aureus IHMA 1580940, MRSA / VSSA, read-out: MIC): 0.5 µg/mL (≈ 1.35 µM)
MIC ([3]; Staphylococcus aureus, MRSA, S. aureus IHMA 1582100, MRSA / VSSA, read-out: MIC): 0.5 µg/mL (≈ 1.35 µM)
MIC ([3]; Staphylococcus aureus, MRSA, S. aureus IHMA 1583795, MRSA / VSSA, read-out: MIC): 1 µg/mL (≈ 2.7 µM)
MIC ([3]; Staphylococcus aureus, MRSA, S. aureus IHMA 1584223, MRSA / VSSA, read-out: MIC): 1 µg/mL (≈ 2.7 µM)
MIC ([3]; Staphylococcus aureus, MRSA, S. aureus IHMA 1585316, MRSA / VSSA, read-out: MIC): 0.25 µg/mL (≈ 0.675 µM)
MIC ([3]; Staphylococcus aureus, MRSA, S. aureus IHMA 1586780, MRSA / VSSA, read-out: MIC): 0.5 µg/mL (≈ 1.35 µM)
MIC ([3]; Staphylococcus aureus, MRSA, S. aureus IHMA 1587322, MRSA / VSSA, read-out: MIC): 0.5 µg/mL (≈ 1.35 µM)
